Structures are written as SMILES. pIC50: −log10 of the molar value. Some results are limits rather than exact numbers.

One experiment concerns the target T1, ATR (Homo sapiens, UniProt Q13535).
T1 construct: endogenous in cells; host or cells: HT29 cells (ECACC #85061109)
The experiment can be described thus: ATR cellular potency assay (pChk1 Ser345 in HT29 cells after 4NQO). The following applies: pChk1 (Ser 345); Table 2; read-out: Assay b) ATR Cell IC50. Format: cell-based.

The next experiment has as its target T2, mTOR (Homo sapiens, UniProt P42345).
T2 construct: phosphorylation of the Akt protein at Ser473 (AKT lies downstream of PI3Kα in the signal transduction pathway) in the MDA-MB-468 cells; endogenous in cells; host or cells: MDA-MB-468 cells (ATCC HTB 132)
Kind of experiment: mTOR cellular potency assay (phospho-AKT Ser473 in MDA-MB-468 cells). In kind it is cell-based. The following applies: MDA-MB-468 cells, 2 h, phospho-AKT Ser473; Table 2; read-out: Assay d) mTOR Cell IC50. The source says: The following assays were used to measure the effects of the compounds of the present invention: a) ATM cellular potency assay; b) PI3K cellular potency assay; c) mTOR cellular potency assay; d) ATR cellular potency assay. During the description of the assays, generally: • i. The following abbreviations have been used: 4NQO=4-Nitroquinoline N-oxide; Ab=Antibody; BSA=Bovine Serum Albumin; CO2=Carbon Dioxide; DMEM=Dulbecco's Modified Eagle Medium; DMSO=Dimethyl Sulphoxide; EDTA=Ethylenediaminetetraacetic Acid; EGTA=Ethylene Glycol Tetraacetic Acid; ELISA=Enzyme-linked Immunosorbent Assay; EMEM=Eagle's Minimal Essential Medium; FBS=Foetal Bovine Serum; h=H(s); HRP=Horseradish Peroxidase; i.p.=intraperitoneal; PBS=Phosphate buffered saline; PBST=Phosphate buffered saline/Tween; TRIS=Tris(Hydroxymethyl)aminomethane; MTS reagent: [3-(4,5-dimethylthiazol-2-yl)-5-(3-carboxymethoxyphenyl)-2-(4-sulfophenyl)-2H-tetrazolium, inner salt, and an electron coupling reagent (phenazine methosulfate) PMS; s.c. sub-cutaneously. • ii. IC50 values were calculated using a smart fitting model in Genedata.
This assay was used to measure mTOR inhibition in cells. The aim of the phospho-AKT cell based mechanism of action assay using the Acumen Explorer is to identify inhibitors of either PI3Kα or mTOR-Rictor (Rapamycin insensitive companion of mTOR). This is measured by any decrease in the phosphorylation of the Akt protein at Ser473 (AKT lies downstream of PI3Kα in the signal transduction pathway) in the MDA-MB-468 cells following treatment with compound.
MDA-MB-468 cells (human breast adenocarcinoma #ATCC HTB 132) were seeded at 1500 cells/well in 40 μl of DMEM containing 10% FBS and 1% glutamine into Greiner 384 well black flat-bottomed plates. Cell plates were incubated for 18 h in a 37° C. incubator before dosing with compounds of Formula (I) in 100% DMSO using acoustic dispensing. Compounds were dosed in a 12 point concentration range into a randomised plate map. Control wells were generated either by dosing of 100% DMSO (max signal) or addition of a reference compound (a PI3K-62 inhibitor) that completely eliminated the pAKT signal (min control). Plates were incubated at 37° C. for 2 h; cells were then fixed by the addition of […] of a 3.7% formaldehyde solution. After 30 minutes the plates were washed with PBS using a Tecan PW384 plate washer. Wells were blocked and cells permeabilised with the addition of 40 μl of PBS containing 0.5% Tween20 and 1% Marvel™ (dried milk powder) and incubated for 60 minutes at r.t. The plates were washed with PBS containing 0.5% (v/v) Tween20 and 20 μl rabbit anti-phospho AKT Ser473 (Cell Signalling Technologies, #3787) in same PBS-Tween+1% MarvelTM was added and incubated overnight at 4° C.
Plates were washed 3 times with PBS+0.05% Tween 20 using a Tecan PW384. 20 μl of secondary antibody Alexa Fluor 488 anti-Rabbit (Molecular Probes, # A11008) diluted in PBS+0.05% Tween20 containing 1% Marvel™ was added to each well and incubated for 1 h at r.t. Plates were washed three times as before then 20 μl PBS added to each well and plates sealed with a black plate sealer.
The plates were read on an Acumen plate reader as soon as possible, measuring green fluorescence after excitation with 488 nm laser. Using this system IC50 values were generated and quality of plates was determined by control wells. Reference compounds were run each time to monitor assay performance.

T1 sequence (Q13535 whole entry): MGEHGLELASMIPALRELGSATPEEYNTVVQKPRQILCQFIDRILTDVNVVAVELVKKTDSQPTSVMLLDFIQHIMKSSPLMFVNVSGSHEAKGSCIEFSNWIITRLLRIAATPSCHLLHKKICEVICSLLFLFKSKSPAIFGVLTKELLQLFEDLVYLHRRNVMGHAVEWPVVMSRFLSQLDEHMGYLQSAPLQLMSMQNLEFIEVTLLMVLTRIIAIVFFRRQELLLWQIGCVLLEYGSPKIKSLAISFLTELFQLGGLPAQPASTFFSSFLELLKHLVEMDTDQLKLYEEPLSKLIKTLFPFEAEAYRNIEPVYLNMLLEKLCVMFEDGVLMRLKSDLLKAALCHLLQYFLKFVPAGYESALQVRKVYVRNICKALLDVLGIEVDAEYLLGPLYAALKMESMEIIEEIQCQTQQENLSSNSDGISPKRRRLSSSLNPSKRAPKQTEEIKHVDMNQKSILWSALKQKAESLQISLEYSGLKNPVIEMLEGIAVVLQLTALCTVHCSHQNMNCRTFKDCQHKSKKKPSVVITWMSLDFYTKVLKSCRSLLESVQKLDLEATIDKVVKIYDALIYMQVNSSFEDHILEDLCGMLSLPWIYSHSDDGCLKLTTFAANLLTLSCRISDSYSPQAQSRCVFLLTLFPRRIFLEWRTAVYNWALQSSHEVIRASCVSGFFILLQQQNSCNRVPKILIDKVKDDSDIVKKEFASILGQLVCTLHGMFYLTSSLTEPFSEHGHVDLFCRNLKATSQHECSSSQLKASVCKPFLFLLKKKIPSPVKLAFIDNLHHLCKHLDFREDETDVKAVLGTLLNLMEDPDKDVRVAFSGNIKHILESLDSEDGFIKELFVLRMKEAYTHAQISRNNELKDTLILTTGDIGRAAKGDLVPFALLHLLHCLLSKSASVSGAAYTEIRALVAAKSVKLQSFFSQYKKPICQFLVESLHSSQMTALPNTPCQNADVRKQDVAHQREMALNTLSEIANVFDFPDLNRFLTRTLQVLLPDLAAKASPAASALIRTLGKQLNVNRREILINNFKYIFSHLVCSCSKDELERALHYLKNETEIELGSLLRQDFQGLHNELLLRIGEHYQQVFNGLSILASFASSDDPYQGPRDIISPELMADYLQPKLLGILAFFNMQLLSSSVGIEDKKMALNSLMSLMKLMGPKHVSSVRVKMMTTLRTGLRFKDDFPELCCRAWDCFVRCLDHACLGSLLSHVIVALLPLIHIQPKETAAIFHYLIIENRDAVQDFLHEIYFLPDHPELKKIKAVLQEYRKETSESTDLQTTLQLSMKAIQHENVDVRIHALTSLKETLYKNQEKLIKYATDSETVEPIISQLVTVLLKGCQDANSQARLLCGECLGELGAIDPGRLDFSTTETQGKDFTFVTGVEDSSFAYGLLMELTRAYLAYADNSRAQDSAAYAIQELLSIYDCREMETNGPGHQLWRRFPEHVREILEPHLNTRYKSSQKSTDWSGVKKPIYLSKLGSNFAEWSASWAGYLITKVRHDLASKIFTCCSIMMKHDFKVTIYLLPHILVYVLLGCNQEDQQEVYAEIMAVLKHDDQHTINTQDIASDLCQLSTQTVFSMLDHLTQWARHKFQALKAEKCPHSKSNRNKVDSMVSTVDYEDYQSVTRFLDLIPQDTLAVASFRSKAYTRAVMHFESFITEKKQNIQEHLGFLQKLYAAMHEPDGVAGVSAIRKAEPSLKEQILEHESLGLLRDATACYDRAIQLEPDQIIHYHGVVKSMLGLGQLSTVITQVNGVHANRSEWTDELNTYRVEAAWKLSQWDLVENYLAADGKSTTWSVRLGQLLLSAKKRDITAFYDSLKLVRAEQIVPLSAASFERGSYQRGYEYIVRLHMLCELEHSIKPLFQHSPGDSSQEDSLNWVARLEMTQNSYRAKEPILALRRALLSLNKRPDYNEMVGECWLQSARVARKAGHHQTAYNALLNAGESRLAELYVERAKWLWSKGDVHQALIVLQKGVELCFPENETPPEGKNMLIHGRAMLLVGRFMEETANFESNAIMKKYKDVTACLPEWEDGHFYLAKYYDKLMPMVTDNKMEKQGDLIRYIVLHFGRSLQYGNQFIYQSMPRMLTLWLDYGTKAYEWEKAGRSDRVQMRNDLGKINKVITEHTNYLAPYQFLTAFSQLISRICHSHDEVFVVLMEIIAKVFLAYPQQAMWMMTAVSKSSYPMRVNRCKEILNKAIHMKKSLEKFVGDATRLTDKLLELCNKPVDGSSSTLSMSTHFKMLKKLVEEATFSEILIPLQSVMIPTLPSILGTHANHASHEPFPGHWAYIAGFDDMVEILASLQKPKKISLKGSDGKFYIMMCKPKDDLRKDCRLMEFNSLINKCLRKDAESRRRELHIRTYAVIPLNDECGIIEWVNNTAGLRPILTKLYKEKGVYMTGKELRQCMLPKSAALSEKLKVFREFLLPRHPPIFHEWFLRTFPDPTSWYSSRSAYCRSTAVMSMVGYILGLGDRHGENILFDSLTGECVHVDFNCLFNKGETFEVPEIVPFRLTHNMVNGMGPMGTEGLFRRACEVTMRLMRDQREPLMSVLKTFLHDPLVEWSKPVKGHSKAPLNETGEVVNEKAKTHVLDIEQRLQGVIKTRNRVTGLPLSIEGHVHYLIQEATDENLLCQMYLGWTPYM
T1 sequence (Q8WXE1 whole entry partner): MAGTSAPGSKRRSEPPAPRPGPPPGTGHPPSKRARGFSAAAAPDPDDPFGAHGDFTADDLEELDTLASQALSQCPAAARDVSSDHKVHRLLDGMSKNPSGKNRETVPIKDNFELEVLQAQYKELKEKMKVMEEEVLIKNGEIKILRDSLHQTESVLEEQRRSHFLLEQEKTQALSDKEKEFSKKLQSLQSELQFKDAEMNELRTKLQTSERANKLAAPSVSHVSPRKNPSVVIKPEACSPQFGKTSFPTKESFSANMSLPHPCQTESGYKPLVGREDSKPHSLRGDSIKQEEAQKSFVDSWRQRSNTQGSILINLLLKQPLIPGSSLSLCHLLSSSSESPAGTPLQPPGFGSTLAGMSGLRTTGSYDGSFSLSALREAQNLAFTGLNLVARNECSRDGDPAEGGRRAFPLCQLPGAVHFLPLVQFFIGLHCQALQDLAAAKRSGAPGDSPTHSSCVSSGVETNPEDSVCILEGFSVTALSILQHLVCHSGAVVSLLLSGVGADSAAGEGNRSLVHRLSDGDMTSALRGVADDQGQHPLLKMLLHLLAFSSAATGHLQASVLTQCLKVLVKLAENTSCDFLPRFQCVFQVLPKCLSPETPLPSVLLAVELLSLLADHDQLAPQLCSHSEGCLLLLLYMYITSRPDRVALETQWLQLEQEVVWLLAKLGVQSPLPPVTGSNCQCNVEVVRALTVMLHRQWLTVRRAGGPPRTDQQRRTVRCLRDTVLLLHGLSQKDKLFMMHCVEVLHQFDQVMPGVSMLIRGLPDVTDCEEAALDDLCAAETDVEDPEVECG

With `CN(C)[C@@H]1CCN(c2ccc(-c3ccc4ncc5c(c4c3)n([C@@H]3CCCOC3)c(=O)n5C)cn2)C1` [Example 7], the pIC50 – broadly, −log10 of the IC50, conventionally taken in molar units – on ATR was 5.85; on mTOR, 6.21.

On to `CNC1CCN(c2ccc(-c3ccc4ncc5c(c4c3)n([C@H]3C[C@@H](OC)C3)c(=O)n5C)cn2)CC1` [Example 60, 1-(cis-3-methoxycyclobutyl)-3-methyl-8-[6-[4-(methylamino)-1-piperidyl]-3-pyridyl]imidazo[4,5-c]quinolin-2-one], for which the pIC50 at ATR was less than 4.52; at mTOR it was 6.00.

Consider `CO[C@H]1C[C@@H](n2c(=O)n(C)c3cnc4cc(F)c(-c5ccc(N6CC(N(C)C)C6)nc5)cc4c32)C1` [Example 31, 8-[6-[3-(dimethylamino)azetidin-1-yl]-3-pyridyl]-7-fluoro-1-(cis-3-methoxycyclobutyl)-3-methyl-imidazo[4,5-c]quinolin-2-one], for which the negative logarithm of the IC50 (pIC50) is less than 4.52 at ATR and 4.89 on mTOR.

With `CO[C@H]1C[C@@H](n2c(=O)n(C)c3cnc4cc(F)c(-c5ccc(N6CCC(N(C)C)CC6)nc5)cc4c32)C1` [Example 42, 8-[6-[4-(dimethylamino)-1-piperidyl]-3-pyridyl]-7-fluoro-1-(cis-3-methoxycyclobutyl)-3-methyl-imidazo[4,5-c]quinolin-2-one], the figures for the negative-log IC50 (pIC50) on ATR and on mTOR were less than 4.52 and less than 4.82, respectively.

Turning to `CO[C@H]1CC[C@H](n2c(=O)n(C)c3cnc4ccc(-c5ccc(N6CCC(N(C)C)CC6)nc5)cc4c32)C1` (single isomer, unassigned) [Example 32, 8-[6-[4-(dimethylamino)-1-piperidyl]-3-pyridyl]-1-[trans-3-methoxycyclopentyl]-3-methyl-imidazo[4,5-c]quinolin-2-one], the pIC50 was less than 4.52 on ATR and 5.82 at mTOR.

As to `CO[C@H]1C[C@@H](n2c(=O)n(C)c3cnc4ccc(-c5ccc(N6CCC(N(C)C)CC6)nc5)cc4c32)C1` [Example 36, 8-[6-[4-(dimethylamino)-1-piperidyl]-3-pyridyl]-1-(cis-3-methoxycyclobutyl)-3-methyl-imidazo[4,5-c]quinolin-2-one], the negative-log IC50 (pIC50) was less than 4.52 at ATR and 5.41 at mTOR.

Turning to `CN(C)[C@H]1CCN(c2ccc(-c3cc4c(cc3F)ncc3c4n([C@H]4CCCOC4)c(=O)n3C)cn2)C1` [Example 20], the pIC50 at ATR and at mTOR was less than 4.52 each time.

For the molecule `CNC1CCN(c2ccc(-c3cc4c(cc3F)ncc3c4n([C@H]4C[C@@H](OC)C4)c(=O)n3C)cn2)CC1` [Example 57, 7-Fluoro-1-(cis-3-methoxycyclobutyl)-3-methyl-8-[6-[4-(methylamino)-1-piperidyl]-3-pyridyl]imidazo[4,5-c]quinolin-2-one], the pIC50 at ATR was less than 4.52; on mTOR, 5.11.

For the origin of these results see patent US20180280377A1, “Imidazo[4,5-c]quinolin-2-one Compounds and Their Use in Treating Cancer” (ASTRAZENECA AB, priority 2015, published 2018).
